Experiment [1] relates to β-glucosidase. Briefly: In vitro β-glucosidase inhibition. In kind it is biochemical. As to conditions: for β-glucosidase IC50: concentration range 75–600 µg/mL. The protocol: The assay was performed in conformity with and used the same formula for amylase.
Experiment [2] has as its target T1, pancreatic lipase (Homo sapiens, UniProt P16233).
T1 sequence (P16233 17-465): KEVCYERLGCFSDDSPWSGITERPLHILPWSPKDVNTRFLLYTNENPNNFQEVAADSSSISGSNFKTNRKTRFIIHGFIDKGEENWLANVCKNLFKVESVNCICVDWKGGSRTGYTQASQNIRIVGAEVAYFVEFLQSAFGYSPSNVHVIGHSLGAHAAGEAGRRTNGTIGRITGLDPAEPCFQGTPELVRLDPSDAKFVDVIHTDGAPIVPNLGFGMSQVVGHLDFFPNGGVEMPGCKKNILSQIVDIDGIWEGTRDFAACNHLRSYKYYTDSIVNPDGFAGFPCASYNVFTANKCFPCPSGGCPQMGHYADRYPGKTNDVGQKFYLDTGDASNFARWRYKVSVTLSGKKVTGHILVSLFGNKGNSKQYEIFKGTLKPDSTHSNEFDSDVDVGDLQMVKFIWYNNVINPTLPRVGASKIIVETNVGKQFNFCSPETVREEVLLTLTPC
Put plainly: In vitro pancreatic lipase inhibition. The class given is biochemical. The conditions noted are these: for IC50: concentration range 12–100 µg/mL. As for the experimental part: The determination of the percentage inhibition of pancreatic lipase was calculated as prescribed by Hegazi et al., using the same formula for amylase.

The target of experiment [3] is T2, α-amylase (Homo sapiens, UniProt P04746).
T2 construct: purchased Sigma-Aldrich (Merck, Darmstadt, Germany)
T2 sequence (P04746 16-511): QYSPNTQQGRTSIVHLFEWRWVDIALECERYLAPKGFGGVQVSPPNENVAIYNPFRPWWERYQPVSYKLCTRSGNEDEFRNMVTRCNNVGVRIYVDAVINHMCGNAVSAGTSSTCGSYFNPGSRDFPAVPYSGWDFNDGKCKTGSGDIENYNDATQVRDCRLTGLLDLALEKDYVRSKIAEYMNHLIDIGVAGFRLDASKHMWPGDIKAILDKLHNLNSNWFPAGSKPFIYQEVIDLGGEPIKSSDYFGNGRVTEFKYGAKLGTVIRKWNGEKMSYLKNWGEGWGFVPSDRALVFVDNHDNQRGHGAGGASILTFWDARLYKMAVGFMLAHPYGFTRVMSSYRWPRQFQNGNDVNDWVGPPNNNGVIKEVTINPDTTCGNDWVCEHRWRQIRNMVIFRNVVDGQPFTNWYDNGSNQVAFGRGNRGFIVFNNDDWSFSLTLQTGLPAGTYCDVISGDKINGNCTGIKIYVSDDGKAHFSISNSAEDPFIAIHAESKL
Briefly: In vitro α-amylase inhibition. In kind it is biochemical. The conditions noted are these: for IC50: concentration range 75–600 µg/mL. The text has this:
The assay was implemented in accordance with. […] The percentage of inhibition can be estimated using the following Equation: 100−[{A sample/ Acontrol ×100]

A short description of experiment [4]: DPPH antioxidant assay. The protocol: The assay was carried out for AEEE and isolated phenolics according to Brand-Williams et al..
(DPPH is a stable violet radical that fades when it is reduced.)

Experiment [5] in a line: ORAC antioxidant assay. The text has this: The antioxidant assay was applied to AEEE and the isolated phenolics.
Experiment [6] can be described thus: Reducing power assay. As for the experimental part:
In the reducing-power assay, the more antioxidant compounds convert the oxidated form of iron (Fe^+3) in ferric chloride to ferrous (Fe^+2), which leads to an increase in colored ferrous-TPTZ complexes.
The assay was carried out on AEEE and the isolated phenolics (DeGraft-Johnson et al., 2007).

Usually inhibition stands for the change of the read-out against control, counted positive when it falls. For orientation: IC50 means the midpoint of a concentration-inhibition curve. Read a low IC50 as greater potency in that assay.

SMILES strings stand for the structures.

For `C[C@H]1O[C@H](O[C@H]2[C@H](O)[C@@H](O)[C@@H](O[C@H]3[C@H](O)[C@@H](O)C(O)O[C@@H]3CO)O[C@@H]2CO)[C@H](O)[C@@H](O)[C@@H]1N[C@H]1C=C(CO)[C@@H](O)[C@H](O)[C@H]1O` (stereo partly drawn) [Acarbose, reference compound], the “β-glucosidase % Inhibition” value in experiment [1] (at 600 µg/mL) was determined as 95.2 ± 2.30%. In addition, the “β-glucosidase IC50” value in experiment [1] is listed as 110.6 ± 3.20 µg/mL.

As for `O=C(OC[C@H]1O[C@@H](Oc2c(-c3cc(O)c(O)c(O)c3)oc3cc(O[C@@H]4O[C@H](CO)[C@@H](O)[C@H](O)[C@H]4O)cc(O)c3c2=O)[C@H](O)[C@@H](O)[C@@H]1O)c1cc(O)c(O)c(O)c1` [Compound 1, myricetin 3-O-β-^4C1-(6′′-O-galloyl glucopyranoside)-7-O-β-^4C1-glucopyranoside], in experiment [2], the inhibition at 100 µg/mL was 87 ± 2.38% and it took 40.3 µM to reach half-maximal inhibition (IC50). In experiment [3], this compound showed an inhibition at 300 µg/mL of 91.4 ± 2.45% and an IC50 of 198 µM. Moreover, the “DPPH IC50” value in experiment [4] worked out at 2.37 ± 0.56 µg/mL. Also, in experiment [5], the “ORAC IC50” value worked out at 2.01 ± 0.23 µg/mL. The “β-glucosidase % Inhibition” value in experiment [1] (at 300 µg/mL) was 92.70 ± 1.42 %. Besides, the “β-glucosidase IC50” value in experiment [1] worked out at 72.77 ± 2.67 µg/mL. For the same compound, the “Ferrous reducing assay IC50” value in experiment [6] is 158.13 ± 2.82 µg/mL. The Reducing power result in experiment [6] (compared with quercetin as standard) is “comparable to that of standard quercetin”.

As for `C[C@@H]1O[C@@H](OC[C@H]2O[C@@H](Oc3c(-c4ccc(O)cc4)oc4cc(O)cc(O)c4c3=O)[C@H](O)[C@@H](O)[C@@H]2O)[C@H](O)[C@H](O)[C@H]1O` [Compound 2, kaempfeol 3-O-rutinoside], in experiment [2], 100 µg/mL produced 35.8 ± 3.84% inhibition and the IC50 was 228 µM. In experiment [3], this compound showed an inhibition at 300 µg/mL of 80.4 ± 3.81% and a 50% inhibitory concentration (IC50) of 348 µM. In experiment [4], the “DPPH IC50” value was over 100 ± 13.67 µg/mL. The “ORAC IC50” value in experiment [5] is reported as over 100 ± 10.17 µg/mL.

Take `C[C@@H]1O[C@@H](OC[C@H]2O[C@@H](Oc3c(-c4ccc(O)c(O)c4)oc4cc(O)cc(O)c4c3=O)[C@H](O)[C@@H](O)[C@@H]2O)[C@H](O)[C@H](O)[C@H]1O` [Compound 3, quercetin 3-O-rutinoside]: in experiment [2], the inhibition at 100 µg/mL came out at 82.2 ± 2.53% and inhibition was half-maximal at 66.2 µM (IC50). In experiment [3], at 300 µg/mL the inhibition was 72.1 ± 3.49% and the IC50 was 366 µM. Besides, the “DPPH IC50” value in experiment [4] came out at 8.81 ± 1.05 µg/mL. Also, the “ORAC IC50” value in experiment [5] is given as 8.02 ± 0.85 µg/mL. Also, the “β-glucosidase % Inhibition” value in experiment [1] (at 300 µg/mL) is on record as 66 ± 3.47 %. The “β-glucosidase IC50” value in experiment [1] came to 104 ± 3.80 µg/mL.

As for `O=C(O[C@@H]1[C@@H](OC(=O)c2cc(O)c(O)c(O)c2)[C@H](O)O[C@@H]2COC(=O)c3cc(O)c(O)c(O)c3-c3c(cc(O)c(O)c3O)C(=O)O[C@@H]12)c1cc(O)c(O)c(O)c1` [Compound 4, tellimagranidine-I], in experiment [2], at 100 µg/mL the inhibition was 19.5 ± 4.36% and the IC50 was 343 µM. Also, in experiment [3], the inhibition at 300 µg/mL is 78.9 ± 4.13% and half-maximal inhibition (IC50) required 276 µM. Besides, the “DPPH IC50” value in experiment [4] was 4.64 ± 0.39 µg/mL. Moreover, the “ORAC IC50” value in experiment [5] is on record as 4.14 ± 1.27 µg/mL. In addition, the “β-glucosidase % Inhibition” value in experiment [1] (at 300 µg/mL) came out at 58.44 ± 3.61 %. In experiment [1], the “β-glucosidase IC50” value was found to be 115.21 ± 4.90 µg/mL.

Regarding `O=C(O[C@H]1[C@H](O)[C@@H](CO)OC(O)[C@@H]1OC(=O)c1cc(O)c(O)c(O)c1)c1cc(O)c(O)c(O)c1` (stereo partly drawn) [Compound 5, 2,3-α, β-digalloy glucose], in experiment [2], testing at 100 µg/mL gave an inhibition of 18.7 ± 3.1% and 549 µM corresponded to half-maximal inhibition (IC50). In experiment [3], this compound showed an inhibition at 300 µg/mL of 78 ± 1.15% and an IC50 of 448 µM. Moreover, in experiment [4], the “DPPH IC50” value turned out to be 4.81 ± 0.73 µg/mL. Further, in experiment [5], the “ORAC IC50” value was found to be 4.43 ± 0.68 µg/mL. Besides, in experiment [1] (at 300 µg/mL), the “β-glucosidase % Inhibition” value is given as 68.43 ± 2.30 %. Besides, in experiment [1], the “β-glucosidase IC50” value amounted to 100.23 ± 3.80 µg/mL.

The compound `CCCCCCCCCCC[C@@H](C[C@@H]1OC(=O)[C@H]1CCCCCC)OC(=O)[C@H](CC(C)C)NC=O` [Orlistat, reference compound] yielded an inhibition at 100 µg/mL in experiment [2] of 57 ± 4.5%.

Take `Cc1c(C)c2c(c(C)c1O)CCC(C)(C(=O)O)O2` (stereo not drawn) [Trolox, reference compound]: the “ORAC IC50” value in experiment [5] was 28.0 ± 14.31 µg/mL.

As for `O=C1O[C@H]([C@@H](O)CO)C(O)=C1O` [Vitamin C, reference compound], the “DPPH IC50” value in experiment [4] came out at 1.83 ± 1.41 µg/mL.

Values taken from paper PMC8840488, “Antidiabetic Activity and In Silico Molecular Docking of Polyphenols from Ammannia baccifera L. subsp. Aegyptiaca (Willd.) Koehne Waste: Structure Elucidation of Undescribed Acylated Flavonol Diglucoside” (Plants, 2022).
